In general, chromatographic logP refers to a lipophilicity value derived from retention on a column.

In patent publication US7179806B2, “Δ1-pyrrolines used as pesticides” (Bayer Cropscience AG, priority 2000, dated 2007) one finds chromatographic logP data, which are given here for 26 compounds.

This series in a line: log P determination by HPLC (reversed-phase C18, EEC Directive 79/831 Annex V.A8). Particulars: reversed-phase C18 HPLC column, pH 2.3, pH 2.3, 0.1% aqueous phosphoric acid/acetonitrile gradient, 43° C. The format is physicochemical. The source says:
Mobile phases for determination in the acidic range: 0.1% aqueous phosphoric acid, acetonitrile; linear gradient from 10% acetonitrile to 90% acetonitrile.

On to `CC(C)(C)C1CCN(c2ncc(-c3ccc(C4CCC(c5c(F)cccc5F)=N4)cc3)cn2)CC1` (centres unmarked) [Example 119], for which the chromatographic logP was 5.47.

Turning to `CC(C)(C)C1CCN(c2ccc(-c3ccc(C4CCC(c5c(F)cccc5F)=N4)cc3)cn2)CC1` (centres unmarked) [Example 175], the chromatographic logP came to 2.89.

Turning to `CCN(C)c1ccc(-c2ccc(C3CCC(c4c(F)cccc4F)=N3)cc2)nn1` (centres unmarked) [Example 75], the chromatographic logP was 1.23.

On to `CN(Cc1ccco1)c1ncc(-c2ccc(C3CCC(c4c(F)cccc4F)=N3)cc2)cn1` (centres unmarked) [Example 182], for which the chromatographic logP was found to be 3.1.

Regarding `FC(F)(F)COc1ccc(Cl)nn1` [III-19, 3-chloro-6-(2,2,2-trifluoroethoxy)pyridazine], the chromatographic logP came to 2.05.

In turn, `Fc1cccc(F)c1C1=NC(c2ccc(-c3ncccn3)cc2)CC1` (centres unmarked) [Example 26] displayed a chromatographic logP of 1.79.

Turning to `CC(C)S(=O)(=O)c1ccc(-c2ccc(C3CCC(c4c(F)cccc4F)=N3)cc2)nn1` (centres unmarked) [Example 82], the chromatographic logP was 1.4.

In the case of `Fc1cccc(F)c1C1=NC(c2ccc(-c3ccc(N4CCCCCC4)nc3)cc2)CC1` (centres unmarked) [Example 109], the chromatographic logP worked out at 1.65.

In turn, `Fc1ccc(CN2CCN(c3ccc(-c4ccc(C5CCC(c6c(F)cccc6F)=N5)cc4)cn3)CC2)cc1` (centres unmarked) [Example 172] registered a chromatographic logP of 1.64.

For `Fc1cccc(F)c1C1=NC(c2ccc(-c3ccc(-n4ccnc4)nc3)cc2)CC1` (centres unmarked) [Example 114], the chromatographic logP stood at 1.28.

Turning to `Fc1cccc(F)c1C1=NC(c2ccc(-c3cnc(-n4ccnc4)nc3)cc2)CC1` (centres unmarked) [Example 124], the chromatographic logP amounted to 1.25.

As to `Fc1cccc(F)c1C1=NC(c2ccc(-c3ccc(OCC(F)(F)F)nn3)cc2)CC1` (centres unmarked) [Example 45], the chromatographic logP is 3.77.

In turn, `CC(=O)OCCCN(Cc1ccc(-c2ccc(C3CCC(c4c(F)cccc4F)=N3)cc2)nn1)C(C)=O` (centres unmarked) [Example 89] displayed a chromatographic logP of 1.77.

The compound `O=C1CCCN1c1ccc(-c2ccc(C3CCC(c4c(F)cccc4F)=N3)cc2)nn1` (centres unmarked) [Example 50] had a chromatographic logP of 1.85.

`CC(C)(C)C(=O)N1CCN(c2ncc(Br)cn2)CC1` [III-6, 1-(tert-butylcarbonyl)-4-(5-bromo-2-pyrimidinyl)piperazine] came in with a chromatographic logP of 2.86.

The compound `Fc1cccc(F)c1C1=NC(c2ccc(-c3ccc(N4CCN(c5cccc(C(F)(F)F)c5)CC4)nc3)cc2)CC1` (centres unmarked) [Example 203] returned a chromatographic logP of 3.

In turn, `Fc1cccc(F)c1C1=NC(c2ccc(-c3cnc(OC(C(F)(F)F)C(F)(F)F)nc3)cc2)CC1` (centres unmarked) [Example 95] gave a chromatographic logP of 3.85.

The compound `CCCCCCC(=O)N(c1ccc(-c2ccc(C3CCC(c4c(F)cccc4F)=N3)cc2)nn1)C1CCCC1` (centres unmarked) [Example 58] registered a chromatographic logP of 4.82.

In turn, `O=S(=O)(N(Cc1ccc(-c2ccc(C3CCC(c4c(F)cccc4F)=N3)cc2)nc1)C1CC1)C(F)(F)F` (centres unmarked) [Example 15] yielded a chromatographic logP of 3.39.

As to `Fc1cccc(F)c1C1=NC(c2ccc(-c3cnc(N4CCN(c5ncccn5)CC4)nc3)cc2)CC1` (centres unmarked) [Example 117], the chromatographic logP came out at 2.7.

In turn, `CC(C)(C)c1ccc(CN2CCN(c3ncc(-c4ccc(C5CCC(c6c(F)cccc6F)=N5)cc4)cn3)CC2)cc1` (centres unmarked) [Example 139] showed a chromatographic logP of 3.3.

On to `Brc1cnc(N2CCOCC2)nc1` [III-5, 4-(5-bromo-2-pyrimidinyl)morpholine], for which the chromatographic logP is 2.15.

`CC(C)ON=C1CCN(c2ncc(-c3ccc(C4CCC(c5c(F)cccc5F)=N4)cc3)cn2)CC1` (centres unmarked) [Example 217] displayed a chromatographic logP of 3.83.

For `N#Cc1ccc(N2CCN(c3ccc(-c4ccc(C5CCC(c6c(F)cccc6F)=N5)cc4)cn3)CC2)cc1` (centres unmarked) [Example 129], the chromatographic logP turned out to be 2.29.

With `CCOCCN1CCN(c2ccc(-c3ccc(C4CCC(c5c(F)cccc5F)=N4)cc3)cn2)CC1` (centres unmarked) [Example 193], the chromatographic logP was found to be 1.26.

On to `Cc1ccc(CN2CCN(c3ncc(-c4ccc(C5CCC(c6c(F)cccc6F)=N5)cc4)cn3)CC2)cc1` (centres unmarked) [Example 141], for which the chromatographic logP was determined as 2.28.
